Legend:
[1] = Weight gain with relative humidity (hygroscopicity); format: physicochemical
[2] = Solid form stability of crystals stored at ambient conditions; format: physicochemical; conditions: product likely form H2-1
Procedure: 100 mg Saxagliptin mono HCl salt form H2-1 (dihydrate) (prepared employing a procedure similar to that described in Example 5) were added to 2 ml of dry ethanol (dried over molecular sieves). The resulting mixture was heated at 45° C. until all form H^2-1 compound was dissolved, at which time heating was discontinued. Crystallization was initiated when the temperature was cooled to 25° C.±2° C. (close to room temperature). Crystals of saxagliptin HCl salt Pattern P-5 were recovered, which crystals were maintained as a slurry in a sealed container at 25° C.±2° C.

Structure (SMILES) | hygroscopicity ([1]; from weight gain in the range 25-75% RH at 25° C.) | weight gain ([1]; range 25-75% RH at 25° C.) [%] | conversion of crystal form on storage [2]
N#C[C@@H]1C[C@@H]2C[C@@H]2N1C(=O)[C@@H](N)C12CC3CC(CC(O)(C3)C1)C2.O [free base monohydrate (form H−1)] | non-hygroscopic | 0.1 | 
Cl.N#C[C@@H]1C[C@@H]2C[C@@H]2N1C(=O)[C@@H](N)C12CC3CC(CC(O)(C3)C1)C2 [saxagliptin HCl salt Pattern P-5] |  |  | underwent significant conversion

Source: patent publication US8802715B2, “Crystal forms of saxagliptin and processes for preparing same” (AstraZeneca AB, priority 2007, dated 2014)
